Five compounds from paper PMC3606118, “Salvianolic Acid A, a Novel Matrix Metalloproteinase-9 Inhibitor, Prevents Cardiac Remodeling in Spontaneously Hypertensive Rats” (PLoS ONE, 2013) can be followed below.

For assay [1], the target named is T1, MMP-9 CD (Homo sapiens, UniProt P14780, DEL217-390).
T1 construct: corresponding to residues 107–216 and 391–444; made in house
T1 sequence (P14780 with tags, fused parts or gaps DEL217-390 limits assumed): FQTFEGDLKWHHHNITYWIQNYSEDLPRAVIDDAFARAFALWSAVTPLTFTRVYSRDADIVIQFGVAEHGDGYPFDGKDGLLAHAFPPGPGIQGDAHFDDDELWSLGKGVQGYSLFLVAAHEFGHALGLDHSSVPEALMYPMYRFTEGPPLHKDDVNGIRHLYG
Kind of assay: MMP-9 inhibition assay (thiopeptolide, enzyme kinetic analysis). The assay is classed as biochemical. The conditions noted are these: for Ki: spectrophotometric enzyme kinetic assay, thiopeptolide substrate; for inhibition on MMP-9 CD: enzyme kinetic assay. The protocol: Phenolic acids at the indicated concentrations were incubated with the reaction mixtures contained MMP-9 CD (15 nmol/L) and 5,5′-dithiobis-(2-nitrobenzoic acid) (1 mmol/L) at 4°C for 30 min. The reaction was initiated by the addition of thiopeptolide (Ac-Pro-Leu-Gly-S-Leu-Leu-Gly-OEt). Hydrolysis of thiopeptolide was monitored at 412 nm using Benchmark Plus™ microplate spectrophotometer (Bio-Rad) at room temperature. Kinetic analysis of phenolic acids against MMP-9 CD was calculated using double reciprocal plots of 1/V versus 1/[thiopeptolide]. The slope of every double reciprocal plot is the Km ^app/Vmax of enzyme at different compound concentration. Secondary plot was drawn through Km ^app/Vmax versus compound concentration. Km ^app is apparent value of Km; Ki is inhibition constant; Ki was calculated using the equation Ki = [Km/Vmax][compound]/(Km ^app/Vmax –Km/Vmax).

Assay [2] has as its target T1, MMP-9 CD. Briefly: Real time binding by surface plasmon resonance (Biacore). The conditions noted are these: for Kd: steady state affinity fit model, immobilized MMP-9 CD, 25°C, read-out: equilibrium dissociation constant (KD); for binding on MMP-9 CD: surface plasmon resonance. Here is the method:
DNA fragments encoding the catalytic domain of MMP-9 (MMP-9 CD, corresponding to residues 107–216 and 391–444) were constructed and subcloned into a pET-15b vector (Novagen). […]. Surface plasmon resonance analysis was performed using Biacore 3000 (Biacore AB). In brief, MMP-9 CD protein (5.8 µmol/L) in 10 mmol/L sodium acetate buffer (pH 3.73) was covalently immobilized on the hydrophilic carboxymethylated dextran matrix of the CM5 sensor chip (BIAcore AB) using standard primary amine coupling procedure. Phenolic acid at various concentrations in HBS-EP running buffer (10 mmol/L HEPES pH 7.4, 150 mmol/L NaCl, 3.4 mmol/L EDTA and 0.005% surfactant P20) were injected at a constant flow rate of 30 µL/min at 25°C. All data were analyzed by BIAevaluation software and the sensorgrams were processed by automatic correction for nonspecific bulk refractive index effects.
(SPR reads the build-up and loss of mass on a sensor chip optically.)

As to `O=C(/C=C/c1ccc(O)c2oc(-c3ccc(O)c(O)c3)cc12)O[C@H](Cc1ccc(O)c(O)c1)C(=O)O` [SalC, salvianolic acid C], on MMP-9 CD [1], the Ki was found to be 110 ± 33.1 µM. Further, at MMP-9 CD [2], the Kd stood at 1.13 µM.

Take `O=C(O)[C@H](O)Cc1ccc(O)c(O)c1` [danshensu]: the “inhibition on MMP-9 CD” value against MMP-9 CD [1] is given as “Neither binding nor inhibition was found”. Further, the “binding on MMP-9 CD” value at MMP-9 CD [2] is “Neither binding nor inhibition was found”.

`O=C(/C=C/c1ccc(O)c2c1[C@H](C(=O)O)[C@@H](c1ccc(O)c(O)c1)O2)O[C@H](Cc1ccc(O)c(O)c1)C(=O)O` [lithospermic acid]: the Ki at MMP-9 CD [1] turned out to be 324 ± 132 µM. Also, on MMP-9 CD [2], the Kd was 66.2 µM.

In the case of `O=Cc1ccc(O)c(O)c1` [protocatechualdehyde], the “inhibition on MMP-9 CD” value at MMP-9 CD [1] is on record as “Neither binding nor inhibition was found”. Further, at MMP-9 CD [2], the “binding on MMP-9 CD” value was “Neither binding nor inhibition was found”.

Consider `O=C(/C=C/c1ccc(O)c(O)c1)O[C@H](Cc1ccc(O)c(O)c1)C(=O)O` [rosmarinic acid], for which the Ki on MMP-9 CD [1] was 126 ± 8.73 µM. The Kd at MMP-9 CD [2] worked out at 10.7 µM.

In general, Ki refers to the equilibrium dissociation constant of an inhibitor or competing ligand from its target. A higher Ki goes with weaker binding. Broadly, the Kd is the free concentration of one partner at which half of the binding sites on the other are occupied at equilibrium, for simple one-to-one binding.
